Numbers after ± are expanded uncertainties.
Details: Liquid; for mass density: 101.33 kPa, Vibrating tube method; for vapor or sublimation pressure: Rate of evaporation

SMILES: Cc1cc(OC(=O)C(C)(C)C)cc(OC(=O)C(C)(C)C)c1
- mass density (323.1 K): 977.806 ± 0.088 kg/m3
- mass density (333.1 K): 969.344 ± 0.091 kg/m3
- mass density (343.1 K): 960.889 ± 0.093 kg/m3
- mass density (353.1 K): 952.427 ± 0.096 kg/m3
- mass density (363.1 K): 943.951 ± 0.099 kg/m3
- vapor or sublimation pressure (456 K): 1.816 ± 0.43 kPa
- vapor or sublimation pressure (460 K): 2.127 ± 0.5 kPa
- vapor or sublimation pressure (464 K): 2.485 ± 0.54 kPa
- vapor or sublimation pressure (468 K): 2.894 ± 0.62 kPa
- vapor or sublimation pressure (472 K): 3.363 ± 0.72 kPa
- vapor or sublimation pressure (476 K): 3.898 ± 0.83 kPa
- vapor or sublimation pressure (480 K): 4.506 ± 0.95 kPa
- vapor or sublimation pressure (484 K): 5.197 ± 1.1 kPa
- vapor or sublimation pressure (488 K): 5.98 ± 1.2 kPa
- vapor or sublimation pressure (492 K): 6.865 ± 1.4 kPa
- vapor or sublimation pressure (496 K): 7.864 ± 1.6 kPa
- vapor or sublimation pressure (500 K): 8.989 ± 1.8 kPa
- vapor or sublimation pressure (504 K): 10.25 ± 2 kPa
- vapor or sublimation pressure (508 K): 11.67 ± 2.2 kPa
- vapor or sublimation pressure (512 K): 13.26 ± 2.5 kPa
- vapor or sublimation pressure (516 K): 15.03 ± 2.8 kPa
- vapor or sublimation pressure (520 K): 17 ± 3.2 kPa
- vapor or sublimation pressure (524 K): 19.2 ± 3.5 kPa
- vapor or sublimation pressure (528 K): 21.65 ± 3.9 kPa
- vapor or sublimation pressure (532 K): 24.36 ± 4.3 kPa
- vapor or sublimation pressure (536 K): 26.58 ± 4.4 kPa

SMILES: CCCCOc1cc(C)cc(OCCCC)c1 [1,3-dibutoxy-5-methylbenzene]
- mass density (278.2 K): 955.338 ± 0.095 kg/m3
- mass density (298.1 K): 938.896 ± 0.1 kg/m3
- mass density (318.1 K): 922.519 ± 0.1 kg/m3
- mass density (338.1 K): 906 ± 0.11 kg/m3
- mass density (358.1 K): 889.4 ± 0.12 kg/m3
- vapor or sublimation pressure (421 K): 1.076 ± 0.28 kPa
- vapor or sublimation pressure (425 K): 1.286 ± 0.33 kPa
- vapor or sublimation pressure (429 K): 1.533 ± 0.36 kPa
- vapor or sublimation pressure (433 K): 1.821 ± 0.42 kPa
- vapor or sublimation pressure (437 K): 2.156 ± 0.49 kPa
- vapor or sublimation pressure (441 K): 2.545 ± 0.57 kPa
- vapor or sublimation pressure (445 K): 2.995 ± 0.67 kPa
- vapor or sublimation pressure (449 K): 3.515 ± 0.78 kPa
- vapor or sublimation pressure (453 K): 4.114 ± 0.9 kPa
- vapor or sublimation pressure (457 K): 4.801 ± 1 kPa
- vapor or sublimation pressure (461 K): 5.588 ± 1.2 kPa
- vapor or sublimation pressure (465 K): 6.487 ± 1.4 kPa
- vapor or sublimation pressure (469 K): 7.512 ± 1.6 kPa
- vapor or sublimation pressure (473 K): 8.677 ± 1.8 kPa
- vapor or sublimation pressure (477 K): 9.998 ± 2.1 kPa
- vapor or sublimation pressure (481 K): 11.49 ± 2.3 kPa
- vapor or sublimation pressure (485 K): 13.18 ± 2.6 kPa
- vapor or sublimation pressure (489 K): 15.09 ± 2.9 kPa
- vapor or sublimation pressure (493 K): 17.23 ± 3.3 kPa
- vapor or sublimation pressure (497 K): 19.63 ± 3.7 kPa
- vapor or sublimation pressure (501 K): 22.32 ± 4.2 kPa
- vapor or sublimation pressure (505 K): 25.32 ± 4.8 kPa
- vapor or sublimation pressure (509 K): 28.68 ± 5 kPa
- vapor or sublimation pressure (513 K): 32.42 ± 5.7 kPa
- vapor or sublimation pressure (517 K): 34.44 ± 5.6 kPa

SMILES: Cc1cc(OCC(C)C)cc(OCC(C)C)c1 [1-methyl-3,5-bis(2-methylpropoxy)benzene]
- mass density (328.2 K): 908.941 ± 0.083 kg/m3
- mass density (338.2 K): 901.02 ± 0.086 kg/m3
- mass density (348.2 K): 893.071 ± 0.089 kg/m3
- mass density (358.2 K): 885.087 ± 0.092 kg/m3
- vapor or sublimation pressure (446 K): 2.406 ± 0.59 kPa
- vapor or sublimation pressure (449 K): 2.737 ± 0.67 kPa
- vapor or sublimation pressure (452 K): 3.108 ± 0.71 kPa
- vapor or sublimation pressure (455 K): 3.524 ± 0.8 kPa
- vapor or sublimation pressure (458 K): 3.989 ± 0.9 kPa
- vapor or sublimation pressure (461 K): 4.508 ± 1 kPa
- vapor or sublimation pressure (464 K): 5.086 ± 1.1 kPa
- vapor or sublimation pressure (467 K): 5.729 ± 1.3 kPa
- vapor or sublimation pressure (470 K): 6.445 ± 1.4 kPa
- vapor or sublimation pressure (473 K): 7.238 ± 1.6 kPa
- vapor or sublimation pressure (476 K): 8.118 ± 1.8 kPa
- vapor or sublimation pressure (479 K): 9.091 ± 1.9 kPa
- vapor or sublimation pressure (482 K): 10.17 ± 2.1 kPa
- vapor or sublimation pressure (485 K): 11.35 ± 2.3 kPa
- vapor or sublimation pressure (488 K): 12.66 ± 2.5 kPa
- vapor or sublimation pressure (491 K): 14.1 ± 2.8 kPa
- vapor or sublimation pressure (494 K): 15.69 ± 3.1 kPa
- vapor or sublimation pressure (497 K): 17.43 ± 3.4 kPa
- vapor or sublimation pressure (500 K): 19.33 ± 3.8 kPa
- vapor or sublimation pressure (503 K): 21.42 ± 4.2 kPa
- vapor or sublimation pressure (506 K): 23.71 ± 4.4 kPa
- vapor or sublimation pressure (509 K): 26.21 ± 4.8 kPa

SMILES: Cc1cc(OCCc2ccccc2)cc(OCCc2ccccc2)c1 [1-methyl-3,5-bis(2-phenylethoxy)benzene]
- mass density (283.2 K): 921.532 ± 0.07 kg/m3
- mass density (303.2 K): 907.265 ± 0.076 kg/m3
- mass density (323.2 K): 893.041 ± 0.081 kg/m3
- mass density (343.2 K): 878.854 ± 0.087 kg/m3
- mass density (363.2 K): 864.445 ± 0.093 kg/m3
- vapor or sublimation pressure (507 K): 1.602 ± 0.37 kPa
- vapor or sublimation pressure (510 K): 1.802 ± 0.42 kPa
- vapor or sublimation pressure (513 K): 2.024 ± 0.44 kPa
- vapor or sublimation pressure (516 K): 2.271 ± 0.49 kPa
- vapor or sublimation pressure (519 K): 2.543 ± 0.55 kPa
- vapor or sublimation pressure (522 K): 2.845 ± 0.61 kPa
- vapor or sublimation pressure (525 K): 3.179 ± 0.68 kPa
- vapor or sublimation pressure (528 K): 3.548 ± 0.75 kPa
- vapor or sublimation pressure (531 K): 3.954 ± 0.83 kPa
- vapor or sublimation pressure (534 K): 4.401 ± 0.92 kPa
- vapor or sublimation pressure (537 K): 4.893 ± 1 kPa
- vapor or sublimation pressure (540 K): 5.434 ± 1.1 kPa
- vapor or sublimation pressure (543 K): 6.027 ± 1.2 kPa
- vapor or sublimation pressure (546 K): 6.678 ± 1.4 kPa
- vapor or sublimation pressure (549 K): 7.39 ± 1.5 kPa
- vapor or sublimation pressure (552 K): 8.17 ± 1.7 kPa
- vapor or sublimation pressure (555 K): 9.022 ± 1.8 kPa
- vapor or sublimation pressure (558 K): 9.952 ± 2 kPa
- vapor or sublimation pressure (561 K): 10.97 ± 2.1 kPa
- vapor or sublimation pressure (564 K): 12.07 ± 2.3 kPa
- vapor or sublimation pressure (567 K): 13.28 ± 2.4 kPa
- vapor or sublimation pressure (570 K): 14.59 ± 2.6 kPa
- vapor or sublimation pressure (573 K): 15.52 ± 2.6 kPa

SMILES: Cc1cc(OC(C)C)cc(OC(C)C)c1 [1-methyl-3,5-bis(propan-2-yloxy)benzene]
- mass density (283.2 K): 963.279 ± 1.8 kg/m3
- mass density (303.2 K): 945.753 ± 1.7 kg/m3
- mass density (323.2 K): 928.213 ± 1.7 kg/m3
- mass density (343.2 K): 910.635 ± 1.6 kg/m3
- mass density (363.2 K): 892.968 ± 1.6 kg/m3
- vapor or sublimation pressure (419 K): 2.389 ± 0.58 kPa
- vapor or sublimation pressure (422 K): 2.713 ± 0.66 kPa
- vapor or sublimation pressure (425 K): 3.074 ± 0.69 kPa
- vapor or sublimation pressure (428 K): 3.478 ± 0.78 kPa
- vapor or sublimation pressure (431 K): 3.928 ± 0.87 kPa
- vapor or sublimation pressure (434 K): 4.428 ± 0.98 kPa
- vapor or sublimation pressure (437 K): 4.984 ± 1.1 kPa
- vapor or sublimation pressure (440 K): 5.601 ± 1.2 kPa
- vapor or sublimation pressure (443 K): 6.285 ± 1.4 kPa
- vapor or sublimation pressure (446 K): 7.041 ± 1.5 kPa
- vapor or sublimation pressure (449 K): 7.876 ± 1.7 kPa
- vapor or sublimation pressure (452 K): 8.796 ± 1.9 kPa
- vapor or sublimation pressure (455 K): 9.811 ± 2.1 kPa
- vapor or sublimation pressure (458 K): 10.93 ± 2.2 kPa
- vapor or sublimation pressure (461 K): 12.15 ± 2.4 kPa
- vapor or sublimation pressure (464 K): 13.49 ± 2.7 kPa
- vapor or sublimation pressure (467 K): 14.97 ± 2.9 kPa
- vapor or sublimation pressure (470 K): 16.58 ± 3.2 kPa
- vapor or sublimation pressure (473 K): 18.34 ± 3.5 kPa
- vapor or sublimation pressure (476 K): 20.26 ± 3.7 kPa
- vapor or sublimation pressure (479 K): 22.36 ± 4.1 kPa

SMILES: CCCCC(=O)Oc1cc(C)cc(OC(=O)CCCC)c1 [3-methyl-5-(pentanoyloxy)phenyl pentanoate]
- mass density (278.2 K): 1031.85 ± 0.3 kg/m3
- mass density (298.1 K): 1015.28 ± 0.28 kg/m3
- mass density (318.1 K): 998.841 ± 0.27 kg/m3
- mass density (338.1 K): 982.449 ± 0.27 kg/m3
- mass density (358.1 K): 966.043 ± 0.27 kg/m3
- vapor or sublimation pressure (464 K): 0.708 ± 0.18 kPa
- vapor or sublimation pressure (468 K): 0.844 ± 0.22 kPa
- vapor or sublimation pressure (472 K): 1.004 ± 0.23 kPa
- vapor or sublimation pressure (476 K): 1.19 ± 0.27 kPa
- vapor or sublimation pressure (480 K): 1.406 ± 0.32 kPa
- vapor or sublimation pressure (484 K): 1.657 ± 0.37 kPa
- vapor or sublimation pressure (488 K): 1.948 ± 0.43 kPa
- vapor or sublimation pressure (492 K): 2.284 ± 0.5 kPa
- vapor or sublimation pressure (496 K): 2.671 ± 0.58 kPa
- vapor or sublimation pressure (500 K): 3.116 ± 0.68 kPa
- vapor or sublimation pressure (504 K): 3.626 ± 0.78 kPa
- vapor or sublimation pressure (508 K): 4.209 ± 0.9 kPa
- vapor or sublimation pressure (512 K): 4.875 ± 1 kPa
- vapor or sublimation pressure (516 K): 5.633 ± 1.2 kPa
- vapor or sublimation pressure (520 K): 6.495 ± 1.4 kPa
- vapor or sublimation pressure (524 K): 7.472 ± 1.5 kPa
- vapor or sublimation pressure (528 K): 8.579 ± 1.8 kPa
- vapor or sublimation pressure (532 K): 9.828 ± 2 kPa
- vapor or sublimation pressure (536 K): 11.24 ± 2.2 kPa
- vapor or sublimation pressure (540 K): 12.82 ± 2.5 kPa
- vapor or sublimation pressure (544 K): 14.6 ± 2.8 kPa
- vapor or sublimation pressure (548 K): 16.6 ± 3.1 kPa
- vapor or sublimation pressure (552 K): 18.83 ± 3.5 kPa
- vapor or sublimation pressure (556 K): 21.33 ± 3.8 kPa
- vapor or sublimation pressure (560 K): 24.11 ± 4.3 kPa
